Values of other authors, collected in US20080318886A1, “Methods of Increasing Cancer Sensitivity to Chemotherapeutic Agents Using Chimeric ISF35” (priority 2006, published 2008).

System: CLL
Conditions: CLL patients, first line treatment

SMILES: Nc1nc(F)nc2c1ncn2[C@@H]1O[C@H](CO)[C@@H](O)[C@@H]1O [Fludaribine]
- overall response rate: ~70%
